Laboratory results published in US8357529B2, “Methods of in vitro protein synthesis” (The Board of Trustees of the Leland Stanford Junior …, priority 2002, dated 2013).
Like-named read-outs stand apart in the source and are kept apart here.

What was measured:
Format in all cases: biochemical, Escherichia coli
[1] = test system: CAT expression in E. coli S30 extract cell-free protein synthesis
Method: (§1) Reactions were incubated at 37° C. for 5-6 hours. The amount of synthesized protein is estimated from the measured TCA-insoluble radioactivities using a liquid scintillation counter (Beckman LS3801). (Kim et al. 1996). Soluble protein yields were determined as previously described. (Kim and Swartz 2000).

[2] = test system: protein synthesis in E. coli S30 extract, PANOx system; experiment: Cell-free protein synthesis in the PANOx system (standard reaction mixture)
Method: A standard reaction mixture for a coupled transcription-translation reaction, herein referred to as the PANOx system (Kim and Swartz (2001), supra.) contains the following components: 57 mM HEPES-KOH (pH7.5), 1.2 mM ATP, 0.85 mM each of GTP, UTP and CTP, 1 mM DTT, 200 mM potassium glutamate, 80 mM ammonium acetate, 16 mM magnesium acetate, 34 μg/ml folinic acid, 170.6 μg/ml E. coli tRNA mixture, 13.3 μg/ml plasmid, 100 μg/ml T7 RNA polymerase, 2 mM each of 20 unlabeled amino acids, 11 μM [^14C]leucine, 2% Poly(ethylene glycol) 8000, 33 mM PEP, 0.33 mM nicotinamide adenine dinucleotide, 0.26 mM Coenzyme A, 2.7 mM sodium oxalate and 0.24 volumes of S30 extract. Prokaryotic cell-free protein synthesis is performed using a crude S30 extract derived from Escherichia coli K12 (strain A19 ΔtonA ΔtnaA ΔspeA ΔendA met+), with slight modifications from the protocol of Pratt, J. M. 1984. (Coupled transcription-translation in prokaryotic cell-free systems. In Transciption and translation: a practical approach. Hanes, B. D., and S. J. Higgins. (Eds.). p. 179-209. IRL Press, New York.) T7 RNA polymerase was prepared from E. coli strain BL21 (pAR1219) according to the procedures of Davanloo et al. 1984. (Cloning and expression of the gene for bacteriophage T7 RNA polymerase. Proc Natl Acad Sci USA 81:2035-2039.)
as §1

[3] = test system: oxidative phosphorylation (electron transport chain); experiment: CAT synthesis in new system with inhibitor of oxidative phosphorylation, oxygen or argon headspace; settings: 20 μl batch, 37° C., 5 hours
Method: In seeking to understand how this yield was accomplished, inhibitors of oxidative phosphorylation were tested to establish that this process was partially responsible for the protein production capability of this new technology. […] HQNO inhibits the electron transport chain part of oxidative phosphorylation. All cases are 20 μl batch reactions, and were incubated at 37° C. for 5 hours. The head spaces of the batch reactors were filled with either oxygen or argon, an inert gas. […]. Furthermore, protein synthesis should be unaffected upon the addition of HQNO in the cases where argon is present and oxygen is not available.

Structure (SMILES): CC(C)(COP(=O)(O)OP(=O)(O)OC[C@H]1O[C@@H](n2cnc3c(N)ncnc32)[C@H](O)[C@@H]1OP(=O)(O)O)[C@@H](O)C(=O)NCCC(=O)NCCS [CoA, Coenzyme A]
- effect of removal of the cofactor on relative protein production ([1]; Cytomim system, CAT, 15 μl, 6 hours): no significant effect

Structure (SMILES): CC(=O)[O-].CC(=O)[O-].[Mg+2] [magnesium acetate]
- optimal magnesium value in the standard reaction mixture [2]: 19.3 mM

Structure (SMILES): O=[N+]([O-])c1ccc(O)c([N+](=O)[O-])c1 [2,4-dinitrophenol]
- protein synthesis yields in the PANOx system with inhibitor of oxidative phosphorylation ([2]; PANOx system): unaffected

Structure (SMILES): [Mg+2] [magnesium]
- optimum magnesium concentration for protein expression ([1]; new environment, with 33 mM sodium pyruvate, includes Mg from cell extract): approximately 11 mM

Structure (SMILES): N#CC(C#N)=NNc1cccc(Cl)c1 [carbonyl-cyanide-m-chlorophenylhydrazone]
- protein synthesis yields in the PANOx system with inhibitor of oxidative phosphorylation ([2]; PANOx system): unaffected

Structure (SMILES): N[C@@H](CCC(=O)[O-])C(=O)[O-].[Mg+2] [magnesium glutamate]
- optimal magnesium value in the standard reaction mixture ([2]; standard reaction mixture, includes Mg from cell extract): 23.3 mM

Structure (SMILES): [N-]=[N+]=[N-] [azide]
- protein synthesis yields in the PANOx system with inhibitor of oxidative phosphorylation [2]: unaffected

Structure (SMILES): CCCCCCCc1cc(O)c2ccccc2[n+]1[O-] [HQNO, 2-heptyl-4-hydroxyquinoline-N-oxide]
- CAT synthesis after inhibitor addition ([3]; argon headspace): unaffected
- CAT synthesis after inhibitor addition ([3]; presence of oxygen, with or without pyruvate): substantially decreases

Structure (SMILES): O=C(CC(=O)C(F)(F)F)c1cccs1 [thenoyltrifluoroacetone]
- protein synthesis yields in the PANOx system with inhibitor of oxidative phosphorylation ([2]; PANOx system): unaffected
